The values that follow come from patent US10093664B2, “Bicyclo[1.1.1]pentane inhibitors of dual leucine zipper (DLK) kinase for the treatment of disease” (priority 2016, dated 2018).

Assay [1] has as its target T1, human DLK (Homo sapiens (Human), UniProt Q12852). In words: cell-based. The settings on record: Table 2b (global); additional assay runs on multiple batches, includes Table 2a data in the averaging; p-cJun (Ser63), HEK293; read-out: Cell IC50.
Method: HEK293 cells stably transfected with a Dox-inducible human DLK were plated into a 384-well plate in 20 μl (40,000 cells/well) of DMEM medium (without phenol red) containing 10% fetal bovine serum, 1.5 μg/ml doxycycline and 1 μg/ml puromycin. The cells as negative control were grown in the absence of doxycycline. The plate was incubated at 37° C., 5% CO2 for 20 h, before DMSO (control) or compounds diluted in medium were added. The cells were incubated at 37° C. for an additional 5 h, followed by lysis and the addition detection antibodies from p-cJun (Ser63) cellular assay kit (Cisbio) per manufacturer protocol. The standard dose response curves were fitted by Genedata Screener software using the variable-slope model: Signal=Signalnegative control+(SignalDMSO control−Signalnegative control)/(1+(IC50/Dose)^Hill slope). Only signal and dose in the equation were treated as known values.
For assay [2], the target named is T1, human DLK. In words: biochemical. The settings on record: Table 2b DLK activity (global); read-out: Kd. It counts as binding.
Method: The DLK dissociation constants (Kd) have been determined in the KINOMEscan KdELECT Service at DiscoveRx.
A fusion protein of full length of human DLK (amino acids 1-859) and the DNA binding domain of NFkB was expressed in transiently transfected HEK293 cells. From these HEK 293 cells, extracts were prepared in M-PER extraction buffer (Pierce) in the presence of Protease Inhibitor Cocktail Complete (Roche) and Phosphatase Inhibitor Cocktail Set II (Merck) per manufacturers' instructions. The DLK fusion protein was labeled with a chimeric double-stranded DNA tag containing the NFkB binding site (5′-[sequence]-3′) fused to an amplicon for qPCR readout, which was added directly to the expression extract (the final concentration of DNA-tag in the binding reaction is 0.1 nM).
The liganded beads were blocked with excess biotin and washed with blocking buffer (SeaBlock (Pierce), 1% BSA, 0.05% Tween 20, 1 mM DTT) to remove unbound ligand and to reduce nonspecific binding.
Extracts were used directly in binding assays without any enzyme purification steps at a ≥10,000-fold overall stock dilution (final DNA-tagged enzyme concentration <0.1 nM). Extracts were loaded with DNA-tag and diluted into the binding reaction in a two step process. First extracts were diluted 1:100 in 1× binding buffer (PBS/0.05% Tween 20/10 mM DTT/0.1% BSA/2 μg/ml sonicated salmon sperm DNA) containing 10 nM DNA-tag. This dilution was allowed to equilibrate at room temperature for 15 minutes and then subsequently diluted 1:100 in 1× binding buffer. Test compounds were prepared as 111× stocks in 100% DMSO. Kds were determined using an 11-point 3-fold compound dilution series with three DMSO control points. […] The compounds were then diluted directly into the assays such that the final concentration of DMSO was 0.9%. All reactions performed in polypropylene 384-well plates. Each was a final volume of 0.02 mL. Assays were incubated with shaking for 1 hour at room temperature. Then the beads were pelleted and washed with wash buffer (1×PBS, 0.05% Tween 20) to remove displaced kinase and test compound. […] The kinase concentration in the eluates was measured by qPCR. qPCR reactions were assembled by adding 2.5 μL of kinase eluate to 7.5 μL of qPCR master mix containing 0.15 μM amplicon primers and 0.15 μM amplicon probe. The qPCR protocol consisted of a 10 minute hot start at 95° C., followed by 35 cycles of 95° C. for 15 seconds, 60° C. for 1 minute.
Test compounds were prepared as 11× stocks in 100% DMSO. Kds were determined using an 11-point 3-fold compound dilution series with three DMSO control points. […] The compounds were then diluted directly into the assays such that the final concentration of DMSO was 0.9%. The Kds were determined using a compound top concentration of 30,000 nM. Kd measurements were performed in duplicate.
Binding constants (Kds) were calculated with a standard dose-response curve using the Hill equation:
The Hill Slope was set to −1.

As usually defined, the IC50 is the concentration needed to halve the response being measured. One may read the Kd as a measure of binding affinity in units of concentration. On to `Nc1ncc(-c2cn(C34CC(N5CCOCC5)(C3)C4)c(C3COC3)n2)cc1OC(F)(F)F` [Example 31, 5-(1-(3-morpholinobicyclo[1.1.1]pentan-1-yl)-2-(oxetan-3-yl)-1H-imidazol-4-yl)-3-(trifluoromethoxy)pyridin-2-amine], for which the IC50 on human DLK [1] is 2.57 µM. In addition, the dissociation constant Kd on human DLK [2] stood at 0.17 µM.

Regarding `Nc1ncc(-c2cn(C34CC(N5CCOCC5)(C3)C4)c(C3CCCO3)n2)cc1OC(F)(F)F` (centres unmarked) [Example 32, 5-(1-(3-morpholinobicyclo[1.1.1]pentan-1-yl)-2-(tetrahydrofuran-2-yl)-1H-imidazol-4-yl)-3-(trifluoromethoxy)pyridin-2-amine], the concentration for half-maximal inhibition (IC50) at human DLK [1] is 0.518 µM. The dissociation constant Kd at human DLK [2] came out at 0.0067 µM.

Take `C[C@H](O)c1nc(-c2cnc(N)c(C(F)(F)F)c2)cn1C12CC(C1)C2` [Example 33, (S)-1-(4-(6-amino-5-(trifluoromethyl)pyridin-3-yl)-1-(bicyclo[1.1.1]pentan-1-yl)-1H-imidazol-2-yl)ethan-1-ol]: the IC50 on human DLK [1] worked out at 0.207 µM. For the same molecule, on human DLK [2], the dissociation constant (Kd) came out at 0.0097 µM.

`Nc1ncc(-c2cn(C34CC(N5CCOCC5)(C3)C4)c(CC3CC3)n2)cc1OC(F)F` [Example 36, 5-(2-(cyclopropylmethyl)-1-(3-morpholinobicyclo[1.1.1]pentan-1-yl)-1H-imidazol-4-yl)-3-(difluoromethoxy)pyridin-2-amine]: on human DLK [1], the half-inhibitory concentration (IC50) was found to be 0.5 µM. Further, on human DLK [2], the equilibrium dissociation constant (Kd) worked out at 0.022 µM.

As to `Nc1ncc(-c2cn(C34CC(N5CCOCC5)(C3)C4)c(C3CC3)n2)cc1OC(F)F` [Example 37, 5-(2-cyclopropyl-1-(3-morpholinobicyclo[1.1.1]pentan-1-yl)-1H-imidazol-4-yl)-3-(difluoromethoxy)pyridin-2-amine], the IC50 at human DLK [1] was 0.351 µM. Also, the Kd on human DLK [2] was found to be 0.019 µM.

Turning to `CC(C)c1nc(-c2cnc(N)c(OC(F)F)c2)cn1C12CC(N3CCOCC3)(C1)C2` [Example 38, 3-(difluoromethoxy)-5-(2-isopropyl-1-(3-morpholinobicyclo[1.1.1]pentan-1-yl)-1H-imidazol-4-yl)pyridin-2-amine], at human DLK [1], the IC50 was 0.709 µM. Further, the dissociation constant (Kd) at human DLK [2] was found to be 0.019 µM.

On to `CC(C)(C)Cc1nc(-c2cnc(N)c(OC(F)(F)F)c2)cn1C12CC(N3CCOCC3)(C1)C2` [Example 39, 5-(1-(3-morpholinobicyclo[1.1.1]pentan-1-yl)-2-neopentyl-1H-imidazol-4-yl)-3-(trifluoromethoxy)pyridin-2-amine], for which the 50% inhibitory concentration (IC50) at human DLK [1] is 4.04 µM. Further, at human DLK [2], the Kd was determined as 0.21 µM.

Consider `CC(C)(C)Cc1nc(-c2cnc(N)c(C(F)(F)F)c2)cn1C12CC(N3CCOCC3)(C1)C2` [Example 40, 5-(1-(3-morpholinobicyclo[1.1.1]pentan-1-yl)-2-neopentyl-1H-imidazol-4-yl)-3-(trifluoromethyl)pyridin-2-amine], for which the half-maximal inhibitory concentration (IC50) on human DLK [1] came out at 2.46 µM. Besides, the Kd at human DLK [2] is 0.066 µM.

Regarding `Nc1ncc(-c2cn(C34CC(N5CCOCC5)(C3)C4)c(C3CCC3)n2)cc1OC(F)(F)F` [Example 43, 5-(2-cyclobutyl-1-(3-morpholinobicyclo[1.1.1]pentan-1-yl)-1H-imidazol-4-yl)-3-(trifluoromethoxy)pyridin-2-amine], the IC50 on human DLK [1] was 0.598 µM. In addition, the dissociation constant (Kd) on human DLK [2] worked out at 0.032 µM.

Take `Nc1ncc(-c2cn(C34CC(N5CCOCC5)(C3)C4)c(C3CCCC3)n2)cc1OC(F)(F)F` [Example 44, 5-(2-cyclopentyl-1-(3-morpholinobicyclo[1.1.1]pentan-1-yl)-1H-imidazol-4-yl)-3-(trifluoromethoxy)pyridin-2-amine]: the half-inhibitory concentration (IC50) at human DLK [1] is 0.841 µM. Moreover, the Kd on human DLK [2] amounted to 0.053 µM.

For the molecule `CC(C)Cc1nc(-c2cnc(N)c(OC(F)(F)F)c2)cn1C12CC(N3CCOCC3)(C1)C2` [Example 45, 5-(2-isobutyl-1-(3-morpholinobicyclo[1.1.1]pentan-1-yl)-1H-imidazol-4-yl)-3-(trifluoromethoxy)pyridin-2-amine], at human DLK [1], the IC50 came to 0.761 µM. Moreover, the Kd on human DLK [2] amounted to 0.015 µM.

On to `CC(C)Cc1nc(-c2cnc(N)c(C(F)(F)F)c2)cn1C12CC(N3CCOCC3)(C1)C2` [Example 47, 5-(2-isobutyl-1-(3-morpholinobicyclo[1.1.1]pentan-1-yl)-1H-imidazol-4-yl)-3-(trifluoromethyl)pyridin-2-amine], for which the IC50 at human DLK [1] was determined as 0.655 µM. Besides, the Kd on human DLK [2] came out at 0.006 µM.

On to `Nc1ncc(-c2cn(C34CC(N5CCOCC5)(C3)C4)c(CC(F)(F)F)n2)cc1OC(F)(F)F` [Example 48, 5-(1-(3-morpholinobicyclo[1.1.1]pentan-1-yl)-2-(2,2,2-trifluoroethyl)-1H-imidazol-4-yl)-3-(trifluoromethoxy)pyridin-2-amine], for which the IC50 on human DLK [1] was 0.413 µM. For the same molecule, the Kd at human DLK [2] was found to be 0.013 µM.

For the molecule `CCC(C)c1nc(-c2cnc(N)c(OC(F)(F)F)c2)cn1C12CC(N3CCOCC3)(C1)C2` (centres unmarked) [Example 49, 5-(2-(sec-butyl)-1-(3-morpholinobicyclo[1.1.1]pentan-1-yl)-1H-imidazol-4-yl)-3-(trifluoromethoxy)pyridin-2-amine], the IC50 on human DLK [1] came out at 0.29 µM. On human DLK [2], the dissociation constant Kd came out at 0.0086 µM.

On to `CCC(C)c1nc(-c2cnc(N)c(OC(F)F)c2)cn1C12CC(N3CCOCC3)(C1)C2` (centres unmarked) [Example 51, 5-(2-(sec-butyl)-1-(3-morpholinobicyclo[1.1.1]pentan-1-yl)-1H-imidazol-4-yl)-3-(difluoromethoxy)pyridin-2-amine], for which, at human DLK [1], the half-inhibitory concentration (IC50) came out at 0.763 µM. Also, the Kd at human DLK [2] is 0.021 µM.

Take `CC(C)c1nc(-c2cnc(N)c(C(F)(F)F)c2)cn1C12CC(C1)C2` [Example 52, 5-(1-(bicyclo[1.1.1]pentan-1-yl)-2-isopropyl-1H-imidazol-4-yl)-3-(trifluoromethyl)pyridin-2-amine]: on human DLK [1], the half-maximal inhibitory concentration (IC50) turned out to be 0.85 µM. Further, at human DLK [2], the equilibrium dissociation constant (Kd) is 0.049 µM.

Turning to `CCC(O)c1nc(-c2cnc(N)c(OC(F)(F)F)c2)cn1C12CC(C1)C2` (centres unmarked) [Example 54, 1-(4-(6-amino-5-(trifluoromethoxy)pyridin-3-yl)-1-(bicyclo[1.1.1]pentan-1-yl)-1H-imidazol-2-yl)propan-1-ol], the IC50 on human DLK [1] worked out at 0.319 µM. Besides, the dissociation constant Kd on human DLK [2] was 0.011 µM.

As to `CC(O)c1nc(-c2cnc(N)c(OC(F)(F)F)c2)cn1C12CC(C1)C2` (centres unmarked) [Example 55, 1-(4-(6-amino-5-(trifluoromethoxy)pyridin-3-yl)-1-(bicyclo[1.1.1]pentan-1-yl)-1H-imidazol-2-yl)ethan-1-ol], the 50% inhibitory concentration (IC50) at human DLK [1] was 0.443 µM. The Kd on human DLK [2] is 0.014 µM.

Take `Nc1ncc(-c2cn(C34CC(C3)C4)c(C(O)C3CC3)n2)cc1OC(F)(F)F` (centres unmarked) [Example 56, (4-(6-amino-5-(trifluoromethoxy)pyridin-3-yl)-1-(bicyclo[1.1.1]pentan-1-yl)-1H-imidazol-2-yl)(cyclopropyl)methanol]: the IC50 on human DLK [1] came to 0.275 µM. Also, the Kd on human DLK [2] came to 0.0051 µM.

For `CC(C)C(O)c1nc(-c2cnc(N)c(OC(F)(F)F)c2)cn1C12CC(C1)C2` (centres unmarked) [Example 57, 1-(4-(6-amino-5-(trifluoromethoxy)pyridin-3-yl)-1-(bicyclo[1.1.1]pentan-1-yl)-1H-imidazol-2-yl)-2-methylpropan-1-ol], the IC50 on human DLK [1] was 0.0386 µM. Further, at human DLK [2], the Kd turned out to be 0.00062 µM.

For `Nc1ncc(-c2cn(C34CC(C3)C4)c(CO)n2)cc1C(F)(F)F` [Example 58, (4-(6-amino-5-(trifluoromethyl)pyridin-3-yl)-1-(bicyclo[1.1.1]pentan-1-yl)-1H-imidazol-2-yl)methanol], on human DLK [1], the IC50 was determined as 0.846 µM. Besides, the Kd at human DLK [2] turned out to be 0.018 µM.

For `CC(C)C(O)c1nc(-c2cnc(N)c(C(F)(F)F)c2)cn1C12CC(C1)C2` (centres unmarked) [Example 59, 1-(4-(6-amino-5-(trifluoromethyl)pyridin-3-yl)-1-(bicyclo[1.1.1]pentan-1-yl)-1H-imidazol-2-yl)-2-methylpropan-1-ol], the IC50 at human DLK [1] turned out to be 0.0209 µM. Further, at human DLK [2], the Kd is 0.00029 µM.

In the case of `CCC(O)c1nc(-c2cnc(N)c(C(F)(F)F)c2)cn1C12CC(C1)C2` (centres unmarked) [Example 61, 1-(4-(6-amino-5-(trifluoromethyl)pyridin-3-yl)-1-(bicyclo[1.1.1]pentan-1-yl)-1H-imidazol-2-yl)propan-1-ol], at human DLK [1], the IC50 was 0.167 µM. At human DLK [2], the Kd was 0.0021 µM.

As to `Nc1ncc(-c2cn(C34CC(N5CCOCC5)(C3)C4)c(C=O)n2)cc1OC(F)(F)F` [Example 66, 4-(6-amino-5-(trifluoromethoxy)pyridin-3-yl)-1-(3-morpholinobicyclo[1.1.1]pentan-1-yl)-1H-imidazole-2-carbaldehyde], on human DLK [1], the IC50 stood at 1.4 µM. The equilibrium dissociation constant (Kd) on human DLK [2] came out at 0.044 µM.

Regarding `CN1CCN(C23CC(n4cc(-c5cnc(N)c(OC(F)(F)F)c5)nc4CC4CC4)(C2)C3)CC1` [Example 72, 5-(2-(cyclopropylmethyl)-1-(3-(4-methylpiperazin-1-yl)bicyclo[1.1.1]pentan-1-yl)-1H-imidazol-4-yl)-3-(trifluoromethoxy)pyridin-2-amine], at human DLK [1], the half-maximal inhibitory concentration (IC50) was 1.16 µM. The dissociation constant (Kd) at human DLK [2] worked out at 0.019 µM.

On to `CN1CCN(C23CC(n4cc(-c5cnc(N)c(OC(F)F)c5)nc4CC4CC4)(C2)C3)CC1` [Example 73, 5-(2-(cyclopropylmethyl)-1-(3-(4-methylpiperazin-1-yl)bicyclo[1.1.1]pentan-1-yl)-1H-imidazol-4-yl)-3-(difluoromethoxy)pyridin-2-amine], for which the IC50 at human DLK [1] is 0.624 µM. Further, on human DLK [2], the dissociation constant (Kd) was determined as 0.018 µM.

Regarding `CC(C)c1nc(-c2cnc(N)c(OC(F)(F)F)c2)cn1C12CC(N3CCN(C)CC3)(C1)C2` [Example 74, 5-(2-isopropyl-1-(3-(4-methylpiperazin-1-yl)bicyclo[1.1.1]pentan-1-yl)-1H-imidazol-4-yl)-3-(trifluoromethoxy)pyridin-2-amine], on human DLK [1], the concentration for half-maximal inhibition (IC50) came to 0.196 µM. Besides, the Kd at human DLK [2] came to 0.0045 µM.

With `CN1CCN(C23CC(n4cc(-c5cnc(N)c(C(F)(F)F)c5)nc4C4CC4)(C2)C3)CC1` [Example 75, 5-(2-cyclopropyl-1-(3-(4-methylpiperazin-1-yl)bicyclo[1.1.1]pentan-1-yl)-1H-imidazol-4-yl)-3-(trifluoromethyl)pyridin-2-amine], the IC50 at human DLK [1] turned out to be 0.256 µM. The dissociation constant (Kd) on human DLK [2] was 0.0075 µM.
